# Laboratory results: ChEMBL document CHEMBL1149402, “New potential antibacterials: a synthetic route to N-aryloxazolidinone/3-aryltetrahydroisoquinoline hybrids” (2006)
# Tested on: Staphylococcus aureus
# Assay: Antibacterial activity against methicillin-susceptible Staphylococcus aureus ATCC 29213
# Assay type: functional
smiles,measurement,value
Br.CC(=O)NC[C@H]1CN(c2ccc(C3Cc4cc(O)c(O)cc4CN3)cc2)C(=O)O1 (stereo partly specified),MIC,> 64 µg/mL
